Data from US8404738B2 (Hoffmann-La Roche Inc., priority 2011, dated 2013).
pEC50, pIC50: −log10 of the molar value.

tested on: p21 promoter-luciferase construct; assay: p21 reporter gene induction (HeLa cells, p21 promoter-luciferase construct); details: relative gene level of p21 compared to MS275 at 3 μM;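 note: transfected HeLa cells exposed to compound for 15 h, luciferase luminescence read from lysates, p21 promoter lacks p53 site, proxy for cellular HDAC1/2/3 inhibition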

| Structure (SMILES) | p21 RP3 |
| --- | --- |
| O=C(NO)c1ccc(NC2CCN(c3ccccc3F)C2=O)cc1 (stereo not shown) [Example 2, 4-[1-(2-Fluoro-phenyl)-2-oxo-pyrrolidin-3-ylamino]-N-hydroxy-benzamide] | 0.33 |
| O=C(NO)c1ccc(NC2CCN(c3cccc(F)c3)C2=O)cc1 (stereo not shown) [Example 3, 4-[1-(3-Fluoro-phenyl)-2-oxo-pyrrolidin-3-ylamino]-N-hydroxy-benzamide] | 0.18 |
| O=C(NO)c1ccc(NC2CCN(c3ccc(F)cc3)C2=O)cc1 (stereo not shown) [Example 4, 4-[1-(4-Fluoro-phenyl)-2-oxo-pyrrolidin-3-ylamino]-N-hydroxy-benzamide] | 0.43 |
| O=C(NO)c1ccc(NC2CCN(c3ccccc3Cl)C2=O)cc1 (stereo not shown) [Example 5, 4-[1-(2-Chloro-phenyl)-2-oxo-pyrrolidin-3-ylamino]-N-hydroxy-benzamide] | −0.01 |
| O=C(NO)c1ccc(NC2CCN(c3cccc(Cl)c3)C2=O)cc1 (stereo not shown) [Example 6, 4-[1-(3-Chloro-phenyl)-2-oxo-pyrrolidin-3-ylamino]-N-hydroxy-benzamide] | 0.03 |
| COc1cccc(N2CCC(Nc3ccc(C(=O)NO)cc3)C2=O)c1 (stereo not shown) [Example 8, N-Hydroxy-4-[1-(3-methoxy-phenyl)-2-oxo-pyrrolidin-3-ylamino]-benzamide] | 0.09 |
| CC(C)Oc1cccc(N2CCC(Nc3ccc(C(=O)NO)cc3)C2=O)c1 (stereo not shown) [Example 9, N-Hydroxy-4-[1-(3-isopropoxy-phenyl)-2-oxo-pyrrolidin-3-ylamino]-benzamide] | 0.24 |
| CC(C)Oc1ccc(N2CCC(Nc3ccc(C(=O)NO)cc3)C2=O)cc1 (stereo not shown) [Example 10, N-Hydroxy-4-[1-(4-isopropoxy-phenyl)-2-oxo-pyrrolidin-3-ylamino]-benzamide] | 0.07 |

same assay, conditions: relative level of p21 compared to MS275 at 10 μM

| Structure (SMILES) | p21 RP10 |
| --- | --- |
| O=C(NO)c1ccc(NC2CCN(c3ccccc3F)C2=O)cc1 (stereo not shown) [Example 2, 4-[1-(2-Fluoro-phenyl)-2-oxo-pyrrolidin-3-ylamino]-N-hydroxy-benzamide] | 0.26 |
| O=C(NO)c1ccc(NC2CCN(c3cccc(F)c3)C2=O)cc1 (stereo not shown) [Example 3, 4-[1-(3-Fluoro-phenyl)-2-oxo-pyrrolidin-3-ylamino]-N-hydroxy-benzamide] | 0.06 |
| O=C(NO)c1ccc(NC2CCN(c3ccc(F)cc3)C2=O)cc1 (stereo not shown) [Example 4, 4-[1-(4-Fluoro-phenyl)-2-oxo-pyrrolidin-3-ylamino]-N-hydroxy-benzamide] | 0.31 |
| O=C(NO)c1ccc(NC2CCN(c3ccccc3Cl)C2=O)cc1 (stereo not shown) [Example 5, 4-[1-(2-Chloro-phenyl)-2-oxo-pyrrolidin-3-ylamino]-N-hydroxy-benzamide] | 0.06 |
| O=C(NO)c1ccc(NC2CCN(c3cccc(Cl)c3)C2=O)cc1 (stereo not shown) [Example 6, 4-[1-(3-Chloro-phenyl)-2-oxo-pyrrolidin-3-ylamino]-N-hydroxy-benzamide] | 0.15 |
| COc1cccc(N2CCC(Nc3ccc(C(=O)NO)cc3)C2=O)c1 (stereo not shown) [Example 8, N-Hydroxy-4-[1-(3-methoxy-phenyl)-2-oxo-pyrrolidin-3-ylamino]-benzamide] | 0.15 |
| CC(C)Oc1cccc(N2CCC(Nc3ccc(C(=O)NO)cc3)C2=O)c1 (stereo not shown) [Example 9, N-Hydroxy-4-[1-(3-isopropoxy-phenyl)-2-oxo-pyrrolidin-3-ylamino]-benzamide] | 0.13 |
| CC(C)Oc1ccc(N2CCC(Nc3ccc(C(=O)NO)cc3)C2=O)cc1 (stereo not shown) [Example 10, N-Hydroxy-4-[1-(4-isopropoxy-phenyl)-2-oxo-pyrrolidin-3-ylamino]-benzamide] | 0.05 |

same assay, conditions: relative level of p21 compared to MS275 at 30 μM

| Structure (SMILES) | p21 RP30 |
| --- | --- |
| O=C(NO)c1ccc(NC2CCN(c3ccccc3F)C2=O)cc1 (stereo not shown) [Example 2, 4-[1-(2-Fluoro-phenyl)-2-oxo-pyrrolidin-3-ylamino]-N-hydroxy-benzamide] | 0.46 |
| O=C(NO)c1ccc(NC2CCN(c3cccc(F)c3)C2=O)cc1 (stereo not shown) [Example 3, 4-[1-(3-Fluoro-phenyl)-2-oxo-pyrrolidin-3-ylamino]-N-hydroxy-benzamide] | 0.08 |
| O=C(NO)c1ccc(NC2CCN(c3ccc(F)cc3)C2=O)cc1 (stereo not shown) [Example 4, 4-[1-(4-Fluoro-phenyl)-2-oxo-pyrrolidin-3-ylamino]-N-hydroxy-benzamide] | 0.48 |
| O=C(NO)c1ccc(NC2CCN(c3ccccc3Cl)C2=O)cc1 (stereo not shown) [Example 5, 4-[1-(2-Chloro-phenyl)-2-oxo-pyrrolidin-3-ylamino]-N-hydroxy-benzamide] | 0.08 |
| O=C(NO)c1ccc(NC2CCN(c3cccc(Cl)c3)C2=O)cc1 (stereo not shown) [Example 6, 4-[1-(3-Chloro-phenyl)-2-oxo-pyrrolidin-3-ylamino]-N-hydroxy-benzamide] | 0.15 |
| COc1cccc(N2CCC(Nc3ccc(C(=O)NO)cc3)C2=O)c1 (stereo not shown) [Example 8, N-Hydroxy-4-[1-(3-methoxy-phenyl)-2-oxo-pyrrolidin-3-ylamino]-benzamide] | 0.29 |
| CC(C)Oc1cccc(N2CCC(Nc3ccc(C(=O)NO)cc3)C2=O)c1 (stereo not shown) [Example 9, N-Hydroxy-4-[1-(3-isopropoxy-phenyl)-2-oxo-pyrrolidin-3-ylamino]-benzamide] | 0.23 |
| CC(C)Oc1ccc(N2CCC(Nc3ccc(C(=O)NO)cc3)C2=O)cc1 (stereo not shown) [Example 10, N-Hydroxy-4-[1-(4-isopropoxy-phenyl)-2-oxo-pyrrolidin-3-ylamino]-benzamide] | 0.05 |

molecular target: T1, HDAC6 (Homo sapiens, UniProt Q9UBN7); assay: Tubulin acetylation cytoblot assay (A549 cells); type: cell-based; details: 17-18 h incubation, tubulin acetylation as marker of HDAC6 inhibition, read-out: Tub-Ac EC50
T1 construct: endogenous in cells; host or cells: A549 cells
T1 sequence (Q9UBN7 1-1215): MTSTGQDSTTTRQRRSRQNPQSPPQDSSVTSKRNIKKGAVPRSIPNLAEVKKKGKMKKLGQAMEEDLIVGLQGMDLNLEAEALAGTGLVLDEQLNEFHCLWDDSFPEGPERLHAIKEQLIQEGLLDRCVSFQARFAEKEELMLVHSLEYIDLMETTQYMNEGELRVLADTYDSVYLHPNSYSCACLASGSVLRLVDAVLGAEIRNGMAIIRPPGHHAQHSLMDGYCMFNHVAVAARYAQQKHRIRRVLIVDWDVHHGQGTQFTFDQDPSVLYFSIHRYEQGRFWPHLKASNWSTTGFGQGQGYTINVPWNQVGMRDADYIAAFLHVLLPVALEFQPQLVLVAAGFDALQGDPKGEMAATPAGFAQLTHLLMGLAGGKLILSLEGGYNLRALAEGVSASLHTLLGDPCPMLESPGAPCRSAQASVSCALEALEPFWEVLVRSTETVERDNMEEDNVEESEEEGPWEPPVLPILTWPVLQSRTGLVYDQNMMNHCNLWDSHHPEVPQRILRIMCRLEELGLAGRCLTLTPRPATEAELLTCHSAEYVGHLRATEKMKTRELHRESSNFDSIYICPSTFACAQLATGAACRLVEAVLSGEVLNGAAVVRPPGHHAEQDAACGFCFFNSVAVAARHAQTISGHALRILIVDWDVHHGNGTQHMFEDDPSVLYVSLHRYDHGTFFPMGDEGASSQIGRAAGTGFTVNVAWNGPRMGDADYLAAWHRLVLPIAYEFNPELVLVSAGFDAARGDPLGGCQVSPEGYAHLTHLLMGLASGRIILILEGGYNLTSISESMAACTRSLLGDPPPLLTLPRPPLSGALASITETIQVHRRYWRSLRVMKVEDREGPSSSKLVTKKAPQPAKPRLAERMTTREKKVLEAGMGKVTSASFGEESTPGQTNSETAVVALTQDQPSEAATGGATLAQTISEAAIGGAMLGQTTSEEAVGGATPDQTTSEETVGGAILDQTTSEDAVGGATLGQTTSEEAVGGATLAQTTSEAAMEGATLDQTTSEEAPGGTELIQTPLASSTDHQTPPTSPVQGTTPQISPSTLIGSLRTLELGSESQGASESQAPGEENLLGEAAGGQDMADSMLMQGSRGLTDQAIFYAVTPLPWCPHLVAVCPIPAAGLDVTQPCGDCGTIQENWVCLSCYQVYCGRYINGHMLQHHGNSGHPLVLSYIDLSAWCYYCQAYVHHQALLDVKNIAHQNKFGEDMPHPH
Description: Tubulin Acetylation Induction by Novel Compounds: Tubulin Acetylation Cytoblot Assay.
Tubulin acetylation is a PD marker for HDAC6 inhibition. The extent of tubulin acetylation represents the inhibitory effect on HDAC6.
Novel compounds were tested for their ability to inhibit HDAC6 using a cell-based deacetylation assay. Tubulin acetylation was detected by the anti-acetylated tubulin antibody (Sigma) and horse radish peroxidase (HRP) conjugated secondary antibody (KangChen Bio. Tech.). […] 20 μl of diluted compound solution was transferred to the cell culture plate and incubated for 17-18 h. After medium removal and fixation by formaldehyde (3.7% paraformaldehyde in TBS), the cells in the plates were treated with 180 μl of −20° C. MeOH and incubated for 5 min at rt. The cell lysis was incubated with 75 μl of primary anti-acetylated tubulin antibody and secondary HRP conjugated antibody solution (1:750 anti-acetylated tubulin, 1:750 HRP conjugated anti-mouse IgG in antibody dilution buffer not containing sodium azide) for 4 h at 4° C. By adding the HRP substrate, enhanced chemiluminescence (ECL) reagent (GE Healthcare) generated luminescence corresponding to the level of tubulin acetylation. So that 75 μl of ECL was added into the wells and the luminescence from each well was immediately quantified by the plate reader. Based on the luminescence reading, the Tub-Ac EC50s against HDAC6 of the tested compounds were calculated by plotting the curve with XLfit4.0 software. Inhibition %=[signal(sample)−Mean(bottom)]×100/[Mean(top)−Mean(bottom)]

| Structure (SMILES) | pEC50 |
| --- | --- |
| O=C(NO)c1ccc(NC2CCN(c3ccccc3F)C2=O)cc1 (stereo not shown) [Example 2, 4-[1-(2-Fluoro-phenyl)-2-oxo-pyrrolidin-3-ylamino]-N-hydroxy-benzamide] | 5.40 |
| O=C(NO)c1ccc(NC2CCN(c3cccc(F)c3)C2=O)cc1 (stereo not shown) [Example 3, 4-[1-(3-Fluoro-phenyl)-2-oxo-pyrrolidin-3-ylamino]-N-hydroxy-benzamide] | 5.81 |
| O=C(NO)c1ccc(NC2CCN(c3ccc(F)cc3)C2=O)cc1 (stereo not shown) [Example 4, 4-[1-(4-Fluoro-phenyl)-2-oxo-pyrrolidin-3-ylamino]-N-hydroxy-benzamide] | 5.41 |
| O=C(NO)c1ccc(NC2CCN(c3ccccc3Cl)C2=O)cc1 (stereo not shown) [Example 5, 4-[1-(2-Chloro-phenyl)-2-oxo-pyrrolidin-3-ylamino]-N-hydroxy-benzamide] | 5.18 |
| O=C(NO)c1ccc(NC2CCN(c3cccc(Cl)c3)C2=O)cc1 (stereo not shown) [Example 6, 4-[1-(3-Chloro-phenyl)-2-oxo-pyrrolidin-3-ylamino]-N-hydroxy-benzamide] | 5.55 |
| COc1cccc(N2CCC(Nc3ccc(C(=O)NO)cc3)C2=O)c1 (stereo not shown) [Example 8, N-Hydroxy-4-[1-(3-methoxy-phenyl)-2-oxo-pyrrolidin-3-ylamino]-benzamide] | 5.39 |
| CC(C)Oc1cccc(N2CCC(Nc3ccc(C(=O)NO)cc3)C2=O)c1 (stereo not shown) [Example 9, N-Hydroxy-4-[1-(3-isopropoxy-phenyl)-2-oxo-pyrrolidin-3-ylamino]-benzamide] | 5.76 |
| CC(C)Oc1ccc(N2CCC(Nc3ccc(C(=O)NO)cc3)C2=O)cc1 (stereo not shown) [Example 10, N-Hydroxy-4-[1-(4-isopropoxy-phenyl)-2-oxo-pyrrolidin-3-ylamino]-benzamide] | 5.67 |

molecular target: T2, recombinant human HDAC8 (Homo sapiens, UniProt Q9BY41); assay: HDAC8 inhibition: recombinant HDAC8 fluorometric assay; type: biochemical; details: recombinant human HDAC8, substrate Ac-Arg-His-Lys-Lys(ε-acetyl)-AMC; read-out: HDAC8 IC50
T2 construct: made in house; host or cells: insect cells
T2 sequence (Q9BY41 1-377): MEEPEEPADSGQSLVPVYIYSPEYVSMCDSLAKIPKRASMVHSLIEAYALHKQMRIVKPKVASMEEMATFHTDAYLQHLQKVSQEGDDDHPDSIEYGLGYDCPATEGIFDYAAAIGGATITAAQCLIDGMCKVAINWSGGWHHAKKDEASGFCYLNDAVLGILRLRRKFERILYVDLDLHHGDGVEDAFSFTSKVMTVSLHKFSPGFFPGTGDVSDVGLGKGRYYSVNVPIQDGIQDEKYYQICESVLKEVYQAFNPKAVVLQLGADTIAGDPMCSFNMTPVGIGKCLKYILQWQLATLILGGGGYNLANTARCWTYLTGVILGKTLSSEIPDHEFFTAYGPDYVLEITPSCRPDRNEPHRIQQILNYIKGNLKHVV
Description: HDAC8 Inhibition by Novel Compounds: Recombinant HDAC8 Fluorometric Assay.
A competitive inhibitory assay of HDAC8 was carried out by using recombinant HDAC8 and a commercial substrate Ac-Arg-His-Lys-Lys(ε-acetyl)-AMC.
Compounds were tested for their ability to inhibit histone deacetylase 8 using an in vitro deacetylation assay. The enzyme source for this assay was recombinant human HDAC8 protein expressed and purified from insect cells. […] The substrate consisted of a commercial product Ac-Arg-His-Lys-Lys(ε-acetyl)-AMC (substrate is available from Cayman Chemical). […] 1 μl of half-log diluted compounds were added into wells and incubated for 15 min at rt. After that, 8 μl of substrate solution was transferred to the wells and incubated for 30 min at rt. After deacetylation of the substrate by incubation with HDAC8 enzyme, subsequent exposure to a developing reagent produced a fluorophore that was directly proportional to the level of deacetylation. […] The fluorescence signal was measured by a FlexStation3 plate reader (excitation wave length 340-360 nm; emission wave length 440-465 nm). The HDAC8 IC50 was calculated after normalization and curve fitting using XLfit4.0 software. Inhibition %=[Mean(top)−signal(sample)]×100/[Mean(top)−Mean(bottom)].

| Structure (SMILES) | pIC50 |
| --- | --- |
| O=C(NO)c1ccc(NC2CCN(c3ccccc3F)C2=O)cc1 (stereo not shown) [Example 2, 4-[1-(2-Fluoro-phenyl)-2-oxo-pyrrolidin-3-ylamino]-N-hydroxy-benzamide] | 6.08 |
| O=C(NO)c1ccc(NC2CCN(c3cccc(F)c3)C2=O)cc1 (stereo not shown) [Example 3, 4-[1-(3-Fluoro-phenyl)-2-oxo-pyrrolidin-3-ylamino]-N-hydroxy-benzamide] | 5.96 |
| O=C(NO)c1ccc(NC2CCN(c3ccc(F)cc3)C2=O)cc1 (stereo not shown) [Example 4, 4-[1-(4-Fluoro-phenyl)-2-oxo-pyrrolidin-3-ylamino]-N-hydroxy-benzamide] | 6.05 |
| O=C(NO)c1ccc(NC2CCN(c3ccccc3Cl)C2=O)cc1 (stereo not shown) [Example 5, 4-[1-(2-Chloro-phenyl)-2-oxo-pyrrolidin-3-ylamino]-N-hydroxy-benzamide] | 6.43 |
| O=C(NO)c1ccc(NC2CCN(c3cccc(Cl)c3)C2=O)cc1 (stereo not shown) [Example 6, 4-[1-(3-Chloro-phenyl)-2-oxo-pyrrolidin-3-ylamino]-N-hydroxy-benzamide] | 6.14 |
| COc1cccc(N2CCC(Nc3ccc(C(=O)NO)cc3)C2=O)c1 (stereo not shown) [Example 8, N-Hydroxy-4-[1-(3-methoxy-phenyl)-2-oxo-pyrrolidin-3-ylamino]-benzamide] | 6.23 |
| CC(C)Oc1cccc(N2CCC(Nc3ccc(C(=O)NO)cc3)C2=O)c1 (stereo not shown) [Example 9, N-Hydroxy-4-[1-(3-isopropoxy-phenyl)-2-oxo-pyrrolidin-3-ylamino]-benzamide] | 5.89 |
| CC(C)Oc1ccc(N2CCC(Nc3ccc(C(=O)NO)cc3)C2=O)cc1 (stereo not shown) [Example 10, N-Hydroxy-4-[1-(4-isopropoxy-phenyl)-2-oxo-pyrrolidin-3-ylamino]-benzamide] | 5.74 |
